Data: patent US8093272B2 (priority 2004, dated 2012)

Experiments:
[1] = test system: 5-HT-uptake; experiment: Measurement of serotonin re-uptake in rat brain synaptosomes (P2 fraction, medulla+pons region); assay type: biochemical; conditions: synaptosomes from medulla+pons region of male rats' brains
Description: Measurement of Serotonin Re-Uptake
In order to carry out these in vitro studies, synaptosomes were freshly isolated from areas of rats' brains. In each case, what is known as a “P2” fraction, which was prepared in accordance with Gray and Whittaker's directions (E. G. Gray and V. P. Whittaker (1962) J. Anat. 76, 79-88), was used. For the 5HT-e, uptake these vesicular particles were isolated from the medulla+pons region of male rats' brains.
A detailed description of the method can be found in the literature (M. Ch. Frink, H.-H. Hennies, W. Englberger, M. Haurand and B. Wilffert (1996) Arzneim.-Forsch./Drug Res. 46 (III), 11, 1029-1036).

[2] = test system: NA-uptake; experiment: Measurement of noradrenalin re-uptake in rat brain synaptosomes (P2 fraction, hypothalamus); assay type: biochemical; conditions: synaptosomes from hypothalamus of male rats' brains
Description: Measurement of Noradrenalin Re-Uptake
In order to carry out these in vitro studies, synaptosomes were freshly isolated from rat brain areas. In each case, what is known as a “P2” fraction, which was prepared in accordance with Gray and Whittaker's directions (E. G. Gray and V. P. Whittaker (1962) J. Anat. 76, 79-88), was used. For the NA-uptake, uptake these vesicular particles were isolated from the hypothalamus of male rats' brains.
A detailed description of the method can be found in the literature (M. Ch. Frink, H.-H. Hennies, W. Englberger, M. Haurand and B. Wilffert (1996) Atzneim.-Forsch./Drug Res. 46 (III), 11, 1029-1036).

SMILES	5-HT-uptake, 10 μM, % inhibition [1] [%]	NA-uptake, 10 μM, % inhibition [2] [%]
Cc1onc(-c2ccccc2Cl)c1C(=O)NC1CCC(c2cccc(F)c2)(N(C)C)CC1.Cl (single isomer, unassigned) [Example 118, 3-(2-chlorophenyl)-5-methylisoxazole-4-carboxylic acid [4-dimethyl-amino-4-(3-fluorophenyl)cyclohexyl]amide hydrochloride, non-polar diastereoisomer]	50	–
Cc1onc(-c2ccccc2Cl)c1C(=O)NC1CCC(c2cccc(F)c2)(N(C)C)CC1.Cl (single isomer, unassigned) [Example 119, 3-(2-chlorophenyl)-5-methylisoxazole-4-carboxylic acid [4-dimethyl-amino-4-(3-fluorophenyl)cyclohexyl]amide hydrochloride, polar diastereoisomer]	86	59
